Reference: patent US6608085B1, “4-quinolinemethanol derivatives as purine receptor antagonists (II)” (Vernalis Research Limited, priority 1998, dated 2003)
Where a name gives a salt, the structure may show the parent alone.

molecular target: human adenosine A2A receptors (Homo sapiens, UniProt P29274); experiment: Binding affinities at hA2A receptors, displacement of [3H]-CGS 21680; settings: displacement of radioligand [3H]-CGS 21680, in vitro
Sequence (P29274 whole entry): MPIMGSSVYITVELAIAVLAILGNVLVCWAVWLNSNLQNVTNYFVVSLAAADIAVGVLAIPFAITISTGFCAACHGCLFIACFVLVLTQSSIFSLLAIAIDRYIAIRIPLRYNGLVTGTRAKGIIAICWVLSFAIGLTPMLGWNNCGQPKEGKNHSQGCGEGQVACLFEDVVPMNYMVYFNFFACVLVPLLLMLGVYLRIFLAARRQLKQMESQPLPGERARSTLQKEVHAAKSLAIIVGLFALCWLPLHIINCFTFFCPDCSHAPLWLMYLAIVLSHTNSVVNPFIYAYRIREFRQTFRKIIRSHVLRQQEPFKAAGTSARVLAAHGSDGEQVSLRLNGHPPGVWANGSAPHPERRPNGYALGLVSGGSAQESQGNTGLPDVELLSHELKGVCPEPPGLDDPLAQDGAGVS

Structure (SMILES)	Ki [µM]
O[C@@H](c1cc(C(F)(F)F)nc2ccccc12)[C@H]1CCCCN1 (racemic) [Example 39, (11S*, 2′R*)-α-(2-Piperidinyl)-2-trifluoromethyl-4-quinolinemethanol (Racemic)]	0.404
COc1cc([C@@H](O)[C@@H]2CCCCN2)c2cccc(C)c2n1 (racemic) [Example 48, (11R*, 2′S*)-2-Methoxy-8-methyl-α-(2-piperidinyl)-4-quinolinemethanol (Racemic)]	1.1
CC(=O)N1CCCC[C@H]1[C@H](O)c1cc(C(F)(F)F)nc2c(C(F)(F)F)cccc12 [Example 5, (11R, 2′S)-α-(1-Acetyl-2-piperidinyl)-2,8-bis(trifluoromethyl)-4-quinolinemethanol]	1.74
CO[C@H](c1cc(C(F)(F)F)nc2c(C(F)(F)F)cccc12)[C@@H]1CCCCN1C [Example 8, (11R, 2′S)-4-(1-Methoxy-1-(1-methyl-2-piperidinyl)methyl)-2,8-bis(trifluoromethyl)quinoline]	0.419
FC(F)(F)c1cc([C@H]2OCN3CCCC[C@H]23)c2cccc(C(F)(F)F)c2n1 [Example 13, (1R, 8aR)-1,5,6,7,8,8a-Hexahydro-1-(2,8-bis(trifluoromethyl)-4-quinolinyl)-3H-oxazolo[3,4-a]pyridine]	0.192
O=C1CO[C@H](c2cc(C(F)(F)F)nc3c(C(F)(F)F)cccc23)[C@@H]2CCCCN12 [Example 14, (1R, 9aS)-1,3,4,6,7,8,9,9a-Octahydro-1-(2,8-bis(trifluoromethyl)-4-quinolinyl)-pyrido[2,1-c][1,4]oxazine-4-one]	1.78
CNCC(O)c1cc(C(F)(F)F)nc2c(C(F)(F)F)cccc12 (stereo not drawn) [Example 22, α-Methylaminomethyl-2,8-bis(trifluoromethyl)-4-quinolinemethanol]	1.5
OC(CNc1ccccc1)c1cc(C(F)(F)F)nc2c(C(F)(F)F)cccc12 (stereo not drawn) [Example 23, α-Phenylaminomethyl-2,8-bis(trifluoromethyl)-4-quinolinemethanol]	2.73
CO[C@H](c1cc(C(F)(F)F)nc2c(C(F)(F)F)cccc12)[C@@H]1CCCCN1 [Example 32, (1′R, 2S)-2-(α-Methoxy-2,8-bis(trifluoromethyl)-4-quinolinemethyl)piperidine Hydrochloride]	0.226
CC[C@H](C)[C@H](N)[C@@H](O)c1cc(C(F)(F)F)nc2c(C(F)(F)F)cccc12 [Example 40, (11S, 1′S, 2′S)-α-(1-Amino-2-methyl-1-butyl)-2,8-bis(trifluoromethyl)-4-quinolinemethanol Hydrochloride]	0.609
O[C@H](c1cc(C(F)(F)F)nc2c(C(F)(F)F)cccc12)[C@@H]1CCCN1 [Example 42, (11R, 2′S)-α-(2-pyrrolidinyl)-2,8-bis(trifuoromethyl)-4-quinolinemethanol Hydrochloride]	0.462
CC(C)(C)OC(=O)N1CCC[C@H]1[C@H](O)c1cc(C(F)(F)F)nc2c(C(F)(F)F)cccc12 [Example 43, (11R, 2′S)-α-(1-tert-Butoxycarbonyl-2-pyrrolidinyl)-2,8-bis(trifluoromethyl)-4-quinolinemethanol]	2.72

Now from value to molecule:

Ki [µM]	Structure (SMILES)
1.21	CC(C)C[C@H](N)C(O)c1cc(C(F)(F)F)nc2c(C(F)(F)F)cccc12 (mixture of isomers) [Example 34, α-(-Amino-3-methylbutyl)-2,8-bis(trifluoromethyl)-4-quinolinemethanol]
0.045	CN1CCCC[C@H]1[C@H](O)c1cc(C(F)(F)F)nc2c(C(F)(F)F)cccc12 [Example 7, (11R, 2′S)-α-(1-Methyl-2-piperidinyl)-2,8-bis(trifluoromethyl)-4-quinolinemethanol]
0.182	O[C@H](c1cc(C(F)(F)F)nc2c(C(F)(F)F)cccc12)[C@@H]1CCCCN1Cc1ccccc1 [Example 9, (11R, 2′S)-α-(1-Benzyl-2-piperidinyl)-2,8-bis(trifluoromethyl)-4-quinolinemethanol]
0.063	FC(F)(F)c1cc([C@H]2OCN3CCCC[C@@H]23)c2cccc(C(F)(F)F)c2n1 [Example 11, (1R, 8aS)-1,5,6,7,8,8a-Hexahydro-1-(2,8-bis(trifluoromethyl)-4-quinolinyl)-3H-oxazolo[3,4-a]pyridine]
1.17	FC(F)(F)c1cc([C@H]2OCCN3CCCC[C@@H]23)c2cccc(C(F)(F)F)c2n1 [Example 15, (1R, 9aS)-1,3,4,6,7,8,9,9a-Octahydrol-(2,8-bis(trifluoromethyl)-4-quinolinyl)-pyrido[2,1-c][1,4]oxazine]
2.45	OC(CNCc1ccccc1)c1cc(C(F)(F)F)nc2c(C(F)(F)F)cccc12 (stereo not drawn) [Example 24, α-Benzylaminomethyl-2,8-bis(trifluoromethyl)-4-quinolinemethanol]
1.27	CC(C)CNCC(O)c1cc(C(F)(F)F)nc2c(C(F)(F)F)cccc12 (stereo not drawn) [Example 25, α-Isobutylaminomethyl-2,8-bis(trifluoromethyl)-4-quinolinemethanol]
2.8	OC(CNC1CCC1)c1cc(C(F)(F)F)nc2c(C(F)(F)F)cccc12 (stereo not drawn) [Example 26, α-Cyclobutylaminomethyl-2,8-bis(trifluoromethyl)-4-quinolinemethanol]
0.906	O[C@H](c1cc(C(F)(F)F)nc2c(C(F)(F)F)cccc12)[C@@H]1CCCCN1CCc1ccccc1 [Example 38, (11S, 2′R)-α-(1-Phenethyl-2-piperidinyl)-2,8-bis(trifluoromethyl)-4-quinolinemethanol]
2.06	O[C@@H](c1cc(C(F)(F)F)nc2c(C(F)(F)F)cccc12)[C@@H]1CCCN1 [Example 45, (11S, 2′S)-α-(2-Pyrrolidinyl)-2,8-bis(trifluoromethyl)-4-quinolinemethanol Hydrochloride]

tested on: haloperidol-induced deficits in locomotor activity in mice; experiment: Haloperidol-induced hypolocomotion model; type: in vivo; settings: 10 mg/kg intraperitoneally, haloperidol 0.2 mg/kg
Excerpt: This approach is also considered a valid method for screening drugs with potential antiparkinsonian effects. Thus, the ability of novel adenosine antagonists to block haloperidol-induced deficits in locomotor activity in mice can be used to assess both in vivo and potential antiparkinsonian efficacy.
Female TO mice (25-30 g) obtained from TUCK, UK, are used for all experiments. Animals are housed in groups of 8 [cage size—40 (width)×40 (length)×20 (height)cm] under 12 hr light/dark cycle (lights on 08:00 hr), in a temperature (20±2° C.) and humidity (55±15%) controlled environment. Animals have free access to food and water, and are allowed at least 7 days to acclimatize after delivery before experimental use.
Liquid injectable haloperidol (1 ml Serenance ampoules from Baker Norton, Harlow, Essex, each containing haloperidol BP 5 mg, batch #P424) are diluted to a final concentration of 0.02 mg/ml using saline. Novel test compounds are typically prepared as aqueous suspensions in 8% Tween. All compounds are administered intraperitoneally in a volume of 10 ml/kg.
1.5 hours before testing, mice are administered 0.2 mg/kg haloperidol, a dose that reduces baseline locomotor activity by at least 50%. […] Horizontal locomotor activity is determined by placing the cages within a frame containing a 3×6 array of photocells linked to a computer, which tabulates beam breaks. […]

Structure (SMILES)	reversal of haloperidol-induced hypolocomotion
O[C@@H](c1cc(C(F)(F)F)nc2ccccc12)[C@H]1CCCCN1 (relative stereo) [Example 39, (11S*, 2′R*)-α-(2-Piperidinyl)-2-trifluoromethyl-4-quinolinemethanol (Racemic)]	significantly reversed

tested on: not given; experiment: not given; settings: not given

Structure (SMILES)	melting point
Nc1cc([C@@H](O)[C@@H]2CCCCN2)c2ccccc2n1 (relative stereo) (as salt: salt)	225 °C (dec.)
OC1(c2cc(C(F)(F)F)nc3c(C(F)(F)F)cccc23)CNC1 [Example 31, 3-(2,8-Bis(Trifluoromethyl)-4-quinolinyl)-3-azetidinol]	201 °C (dec.)

The remaining lines, values ahead:

melting point	Structure (SMILES)
232 to 233 °C	COC(CNCc1ccccc1)c1cc(C(F)(F)F)nc2c(C(F)(F)F)cccc12 (stereo not drawn) (as salt: hydrochloride) [Example 30, N-Benzyl-β-methoxy-2,8-bis(trifuoromethyl)-4-quinolineethanamine Hydrochloride]
230 °C (dec.)	O[C@H](c1cc(C(F)(F)F)nc2c(C(F)(F)F)cccc12)[C@@H]1CCCN1 (as salt: hydrochloride) [Example 42, (11R, 2′S)-α-(2-pyrrolidinyl)-2,8-bis(trifuoromethyl)-4-quinolinemethanol Hydrochloride]
246 °C (dec.)	O[C@@H](c1cc(C(F)(F)F)nc2c(C(F)(F)F)cccc12)[C@@H]1CCCN1 (as salt: hydrochloride) [Example 45, (11S, 2′S)-α-(2-Pyrrolidinyl)-2,8-bis(trifluoromethyl)-4-quinolinemethanol Hydrochloride]
225 °C (dec.)	Cc1cccc2c([C@@H](O)[C@@H]3CCCCN3)cc(O)nc12 (relative stereo)
129 to 130 °C	OC(CN1CCOCC1)c1cc(C(F)(F)F)nc2c(C(F)(F)F)cccc12 (stereo not drawn) [Example 18, α-Morpholinomethyl-2,8-bis(trifluoromethyl)-4-quinolinemethanol]
129.5 °C	OC(CN1CCCCC1)c1cc(C(F)(F)F)nc2c(C(F)(F)F)cccc12 (stereo not drawn) [Example 20, α-Piperidinomethyl-2,8-bis(trifluoromethyl)-4-quinolinemethanol]

tested on: Parkinsonian patients; experiment: not given; settings: 15 Parkinsonian patients, up to 12 weeks, 150 mg/day; cited from earlier work

Structure (SMILES)	mean objective disability scores
Cn1c(=O)c2[nH]cnc2n(C)c1=O [Theophylline, 1,3-dimethylxanthine]	significant improvements

same assay, conditions: of 15 Parkinsonian patients, up to 12 weeks, 150 mg/day; cited from earlier work

Structure (SMILES)	patients reporting moderate or marked subjective improvement
Cn1c(=O)c2[nH]cnc2n(C)c1=O [Theophylline, 1,3-dimethylxanthine]	11

same assay, conditions: slow release oral preparation 150 mg/day, after one week; cited from earlier work

Structure (SMILES)	serum theophylline levels [mg/L]
Cn1c(=O)c2[nH]cnc2n(C)c1=O [Theophylline, 1,3-dimethylxanthine]	4.44

tested on: cataleptic responses; experiment: not given; settings: in vivo; cited from earlier work

Structure (SMILES)	anticataleptic effects of a subthreshold dose of L-DOPA plus benserazide	catalepsy induced by haloperidol and reserpine
CCCn1c(=O)c2c(nc(/C=C/c3ccc(OC)c(OC)c3)n2C)n(CCC)c1=O [KF 17837, (E)-8-(3,4-dimethoxystyryl)-1,3-dipropyl-7-methylxanthine]	potentiated	reduced

same assay, conditions: oral administration; cited from earlier work

Structure (SMILES)	cataleptic responses induced by intracerebroventricular CGS 21680
CCCn1c(=O)c2c(nc(/C=C/c3ccc(OC)c(OC)c3)n2C)n(CCC)c1=O [KF 17837, (E)-8-(3,4-dimethoxystyryl)-1,3-dipropyl-7-methylxanthine]	significantly ameliorated
